As usually defined, the IC50 is the point on the concentration scale where inhibition reaches its midpoint. By AUC(0-t) is commonly meant the area under the concentration-time curve up to a stated or last time point. One may read the Cmax as the maximum level reached in the sampled fluid or tissue.

Like-named read-outs stand apart in the source and are kept apart here.

Series [1] deals with HIV-1 strains, for e.g., 92HT599. Kind of series: Antiviral activity: p24 estimation in HIV-1 infected MT-2 cells. The format is cell-based. Here is the method:
MT-2 cells were infected with required number of TCID50's of HIV-1 strains, for e.g., 92HT599. The infected cells were plated at the concentration of 30,000 cells per well in a 96 well plate. Test compound was added to the 96 well plate with the final concentration of DMSO (vehicle—not more than 1%). The plates are then incubated in a CO2 incubator for ˜96 hours (˜4 days) for viral infection. At the end of incubation period an aliquot from each well was taken for p24 estimation. The quantitation of p24 is an estimated index for antiviral activity of the compound. Percent inhibition was calculated with reference to control values (vehicle controls).
p-24 estimation was carried out using Advance biosciences kit as per the procedure detailed by supplier.

The nature of series [2]: Single dose oral pharmacokinetic study. Also noted: species or system mice. The settings on record: mouse, in vivo. Here is the method: The test item was administered through oral route to animals (rat/mice) at 30 mg/kg dose in a suitable vehicle at 10 ml/kg dose volume. Blood samples (˜50 uL at each time point) were collected from retro-orbital plexus using K3 EDTA as anticoagulant in eppendorf tubes at defined time intervals under light ether anesthesia. The samples were centrifuged at 3500×g to separate plasma and stored at −80° C. until analysis.
Sample analysis: Test samples were analyzed using LC-MS-MS after developing fit-for-purpose method for each of test compound.

[3] abbreviates: Human immunodeficiency virus 1, MT2, MT-2 cells, p24, read-out: Antiviral activity IC50.

With `C=C(C)[C@@H]1CC[C@]2(C(=O)N3CCC[C@H]3c3nc(-c4ccccc4)cn3CCN(C)C)CC[C@]3(C)[C@H](CC[C@@H]4[C@@]5(C)CC[C@H](OC(=O)[C@H]6C[C@@H](C(=O)O)C6(C)C)C(C)(C)[C@@H]5CC[C@]43C)[C@@H]12` [Compound 5, (1R,3S)-3-((((1R,3aS,5aR,5bR,7aR,9S,11aR,11bR,13aR,13bR)-3a-((S)-2-(1-(2-(dimethylamino)ethyl)-4-phenyl-1H-imidazol-2-yl)pyrrolidine-1-carbonyl)-5a,5b,8,8,11a-pentamethyl-1-(prop-1-en-2-yl)icosahydro-1H-cyclopenta[a]chrysen-9-yl)oxy)carbonyl)-2,2-dimethylcyclobutane-1-carboxylic acid], the IC50 in series [1] (setting [3]) was 73.2 nM. Moreover, in series [2] (po, 30 mg/kg), the AUC(0-t) stood at 292 µg·h/mL and the Cmax worked out at 10400 ng/mL.
As for `C=C(C)[C@@H]1CC[C@]2(C(=O)N3CCC[C@H]3c3nc(-c4ccccc4)cn3CCN(C)C)CC[C@]3(C)[C@H](CC[C@@H]4[C@@]5(C)CC[C@H](OC(=O)CC(C)(C)C(=O)O)C(C)(C)[C@@H]5CC[C@]43C)[C@@H]12` [Compound 16, 4-(((1R,3aS,5aR,5bR,7aR,9S,11aR,11bR,13aR,13bR)-3a-((S)-2-(1-(2-(dimethylamino)ethyl)-4-phenyl-1H-imidazol-2-yl)pyrrolidine-1-carbonyl)-5a,5b,8,8,11a-pentamethyl-1-(prop-1-en-2-yl)icosahydro-1H-cyclopenta[a]chrysen-9-yl)oxy)-2,2-dimethyl-4-oxo butanoic acid], the IC50 in series [1] (setting [3]) was 8.48 nM. In series [2] (po, 30 mg/kg), the AUC(0-t) was 294 µg·h/mL and the Cmax stood at 9030 ng/mL.
For the molecule `C=C(C)[C@@H]1CC[C@]2(C(=O)N3CCC[C@H]3c3nc(-c4ccc(F)cc4)cn3CCN(C)C)CC[C@]3(C)[C@H](CC[C@@H]4[C@@]5(C)CC[C@H](OC(=O)[C@H]6C[C@@H](C(=O)O)C6(C)C)C(C)(C)[C@@H]5CC[C@]43C)[C@@H]12` [Compound 7, (1R,3S)-3-((((1R,3aS,5aR,5bR,7aR,9S,11aR,11bR,13aR,13bR)-3a-((S)-2-(1-(2-(dimethylamino)ethyl)-4-(4-fluorophenyl)-1H-imidazol-2-yl)pyrrolidine-1-carbonyl)-5a,5b,8,8,11a-pentamethyl-1-(prop-1-en-2-yl)icosahydro-1H-cyclopenta[a]chrysen-9-yl)oxy)carbonyl)-2,2-dimethyl cyclobutane-1-carboxylic acid], in series [1] (setting [3]), the IC50 was 75.3 nM.
Regarding `C=C(C)[C@@H]1CC[C@]2(C(=O)N3CCC[C@H]3c3nc(-c4ccc(F)cc4)cn3CCP(=O)(OCC)OCC)CC[C@]3(C)[C@H](CC[C@@H]4[C@@]5(C)CC[C@H](OC(=O)[C@H]6C[C@@H](C(=O)O)C6(C)C)C(C)(C)[C@@H]5CC[C@]43C)[C@@H]12` [Compound 24, (1R,3S)-3-((((1R,3aS,5aR,5bR,7aR,9S,11aR,11bR,13aR,13bR)-3a-((S)-2-(1-(2-(diethoxyphosphoryl)ethyl)-4-(4-fluorophenyl)-1H-imidazol-2-yl)pyrrolidine-1-carbonyl)-5a,5b,8,8,11a-pentamethyl-1-(prop-1-en-2-yl)icosahydro-1H-cyclopenta[a]chrysen-9-yl)oxy)carbonyl)-2,2-dimethylcyclobutane-1-carboxylic acid], the IC50 in series [1] (Human immunodeficiency virus 1, MT2, read-out: Antiviral activity IC50 (nM)) was 0.972 nM. For the same molecule, in series [2] (Mice oral PK @30 mg/kg, plasma, read-out: AUC 0-t), the AUC(0-t) worked out at 89.4 µg·h/mL. The Cmax in series [2] (Mice oral PK @30 mg/kg, plasma, read-out: Cmax) stood at 2550 ng/mL.
Take `C=C(C)[C@@H]1CC[C@]2(C(=O)N3CCC[C@H]3c3nc(-c4cccnc4)cn3CCN(C)C)CC[C@]3(C)[C@H](CC[C@@H]4[C@@]5(C)CC[C@H](OC(=O)CC(C)(C)C(=O)O)C(C)(C)[C@@H]5CC[C@]43C)[C@@H]12` [Compound 18, 4-(((1R,3aS,5aR,5bR,7aR,9S,11aR,11bR,13aR,13bR)-3a-((S)-2-(1-(2-(dimethylamino)ethyl)-4-(pyridin-3-yl)-1H-imidazol-2-yl)pyrrolidine-1-carbonyl)-5a,5b,8,8,11a-pentamethyl-1-(prop-1-en-2-yl)icosahydro-1H-cyclopenta[a]chrysen-9-yl)oxy)-2,2-dimethyl-4-oxobutanoic acid]: the IC50 in series [1] (setting [3]) is 80.4 nM. Further, in series [2] (po, 30 mg/kg), the AUC(0-t) is 3.01 µg·h/mL and the highest level (Cmax) was 648 ng/mL.
For the molecule `C=C(C)[C@@H]1CC[C@]2(C(=O)N3C[C@H](OCCOC)C[C@H]3c3nc(-c4ccccc4)cn3CCN(C)C)CC[C@]3(C)[C@H](CC[C@@H]4[C@@]5(C)CC[C@H](OC(=O)[C@H]6C[C@@H](C(=O)O)C6(C)C)C(C)(C)[C@@H]5CC[C@]43C)[C@@H]12` [Compound 25, (1R,3S)-3-((((1R,3aS,5aR,5bR,7aR,9S,11aR,11bR,13aR,13bR)-3a-((2S,4R)-2-(1-(2-(dimethylamino)ethyl)-4-phenyl-1H-imidazol-2-yl)-4-(2-methoxyethoxy)pyrrolidine-1-carbonyl)-5a,5b,8,8,11a-pentamethyl-1-(prop-1-en-2-yl)icosahydro-1H-cyclopenta[a]chrysen-9-yl)oxy)carbonyl)-2,2-dimethylcyclobutane-1-carboxylic acid], in series [2] (po, 30 mg/kg), the AUC(0-t) was found to be 617 µg·h/mL and the Cmax was 17600 ng/mL.
`C=C(C)[C@@H]1CC[C@]2(C(=O)N3CCC[C@H]3c3nc(-c4ccccc4)cn3C)CC[C@]3(C)[C@H](CC[C@@H]4[C@@]5(C)CC[C@H](OC(=O)[C@H]6C[C@@H](C(=O)O)C6(C)C)C(C)(C)[C@@H]5CC[C@]43C)[C@@H]12` [Compound 1, (1R,3S)-2,2-dimethyl-3-((((1R,3aS,5aR,5bR,7aR,9S,11aR,11bR,13aR,13bR)-5a,5b,8,8,11a-pentamethyl-3a-((S)-2-(1-methyl-4-phenyl-1H-imidazol-2-yl)pyrrolidine-1-carbonyl)-1-(prop-1-en-2-yl)icosahydro-1H-cyclopenta[a]chrysen-9-yl)oxy)carbonyl)cyclobutane-1-carboxylic acid]: in series [1] (setting [3]), the IC50 was 6.74 nM. In series [2] (po, 30 mg/kg), this molecule came in with an AUC(0-t) of 250 µg·h/mL and a Cmax of 8540 ng/mL.
For `C=C(C)[C@@H]1CC[C@]2(C(=O)N3CCC[C@H]3c3nc(-c4ccccc4)cn3CCN3CCOCC3)CC[C@]3(C)[C@H](CC[C@@H]4[C@@]5(C)CC[C@H](OC(=O)[C@H]6C[C@@H](C(=O)O)C6(C)C)C(C)(C)[C@@H]5CC[C@]43C)[C@@H]12` [Compound 3, (1R,3S)-2,2-dimethyl-3-((((1R,3aS,5aR,5bR,7aR,9S,11aR,11bR,13aR,13bR)-5a,5b,8,8,11a-pentamethyl-3a-((S)-2-(1-(2-morpholinoethyl)-4-phenyl-1H-imidazol-2-yl)pyrrolidine-1-carbonyl)-1-(prop-1-en-2-yl)icosahydro-1H-cyclopenta[a]chrysen-9-yl)oxy)carbonyl)cyclo butane-1-carboxylic acid] the same measures were 113 nM, 407 µg·h/mL and 14700 ng/mL.
Turning to `C=C(C)[C@@H]1CC[C@]2(C(=O)N3CCC[C@H]3c3nc(-c4ccncc4)cn3CCN3CCCC3)CC[C@]3(C)[C@H](CC[C@@H]4[C@@]5(C)CC[C@H](OC(=O)[C@H]6C[C@@H](C(=O)O)C6(C)C)C(C)(C)[C@@H]5CC[C@]43C)[C@@H]12` [Compound 9, (1R,3S)-2,2-dimethyl-3-((((1R,3aS,5aR,5bR,7aR,9S,11aR,11bR,13aR,13bR)-5a,5b,8,8,11a-pentamethyl-1-(prop-1-en-2-yl)-3a-((S)-2-(4-(pyridin-4-yl)-1-(2-(pyrrolidin-1-yl)ethyl)-1H-imidazol-2-yl)pyrrolidine-1-carbonyl)icosahydro-1H-cyclopenta[a]chrysen-9-yl)oxy)carbonyl) cyclobutane-1-carboxylic acid], in series [1] (setting [3]), the IC50 is 10.6 nM. In series [2] (po, 30 mg/kg), this molecule gave an AUC(0-t) of 260 µg·h/mL and a Cmax of 6900 ng/mL.
In series [2] (po, 30 mg/kg), `C=C(C)[C@@H]1CC[C@]2(C(=O)N3CCC[C@H]3c3nc(-c4ccccc4)cn3CCOCCOC)CC[C@]3(C)[C@H](CC[C@@H]4[C@@]5(C)CC[C@H](OC(=O)[C@H]6C[C@@H](C(=O)O)C6(C)C)C(C)(C)[C@@H]5CC[C@]43C)[C@@H]12` [Compound 2, (1R,3S)-3-((((1R,3aS,5aR,5bR,7aR,9S,11aR,11bR,13aR,13bR)-3a-((S)-2-(1-(2-(2-methoxyethoxy)ethyl)-4-phenyl-1H-imidazol-2-yl)pyrrolidine-1-carbonyl)-5a,5b,8,8,11a-pentamethyl-1-(prop-1-en-2-yl)icosahydro-1H-cyclopenta[a]chrysen-9-yl)oxy)carbonyl)-2,2-dimethyl cyclobutane-1-carboxylic acid] yielded an AUC(0-t) of 335 µg·h/mL and a Cmax of 11400 ng/mL.
In the case of `C=C(C)[C@@H]1CC[C@]2(C(=O)N3CCC[C@H]3c3nc(-c4ccccc4)cn3CCOC)CC[C@]3(C)[C@H](CC[C@@H]4[C@@]5(C)CC[C@H](OC(=O)[C@H]6C[C@@H](C(=O)O)C6(C)C)C(C)(C)[C@@H]5CC[C@]43C)[C@@H]12` [Compound 4, (1R,3S)-3-((((1R,3aS,5aR,5bR,7aR,9S,11aR,11bR,13aR,13bR)-3a-((S)-2-(1-(2-methoxyethyl)-4-phenyl-1H-imidazol-2-yl)pyrrolidine-1-carbonyl)-5a,5b,8,8,11a-pentamethyl-1-(prop-1-en-2-yl)icosahydro-1H-cyclopenta[a]chrysen-9-yl)oxy)carbonyl)-2,2-dimethylcyclobutane-1-carboxylic acid], in series [2] (po, 30 mg/kg), the AUC(0-t) was found to be 291 µg·h/mL and the highest level (Cmax) was 9220 ng/mL.

These data come from patent US9868758B2, “Betulinic proline imidazole derivatives as HIV inhibitors” (HETERO LABS LIMITED, priority 2014, dated 2018).
